A word on the IC50: it is the concentration needed to halve the response being measured.

Each structure is given as a SMILES string. Some results are limits rather than exact numbers.

Here are results for 25 compounds from patent publication US11787762B2, “Tetralin and tetrahydroquinoline compounds as inhibitors of HIF-2alpha” (ARCUS BIOSCIENCES, INC., priority 2020, dated 2023).

In assay [1] the target is T1, Histidine tagged HIF-2α protein containing PAS-B domain (240-350) (Homo sapiens, UniProt Q99814).
T1 construct: HIF-2α protein containing PAS-B domain (240-350); made in house
Put plainly: HIF-2α Scintillation Proximity Assay (SPA) binding assay. The settings on record: 50 nM HIF-2α protein, 25 nM 3H-tracer. The method, then:
HIF-2α Scintillation Proximity Assay (SPA) Binding Assay:
Tritium labeled compound N-(3-chlorophenyl)-4-nitro-2,1,3-benzoxadiazol-5-amine was obtained from American Radiolabeled Chemicals Inc. and copper chelate PVT SPA beads were from PerkinElmer (Cat #RPNQ0095). Histidine tagged HIF-2α protein containing PAS-B domain (240-350) was prepared and purified in house.
Compounds solubilized in DMSO were dispensed into a white 384-well polystyrene non-binding flat clear bottom plate (Greiner Bio-One, Cat #781903) using an HP D300 dispenser. Ten microliters of HIS-tagged HIF-2α protein in buffer (25 mM Tris-HCl, pH 7.4, 150 mM NaCl, 0.15% BSA and 0.001% Tween 20) was added to the compound wells and allowed to incubate for 1 hour at room temperature. Ten microliters of SPA bead mix were added to the wells and incubated for an additional 45 minutes, followed by 10 ul of ^3H-tracer solution. Final assay conditions comprised 50 nM HIF-2α protein, 25 nM radiolabeled tracer and 3 ug beads per well with compounds in 2% DMSO. The plate was read using a MicroBeta Microplate Counter (PerkinElmer) for luminescence detection. The IC50 values of the test compounds were determined from compound dose response curves fitted using a standard four parameter fit equation and are reported in Table 1, Table 2, and Table 3.
A general note: In a scintillation proximity assay essentially only radioactivity close to the scintillant gives light.

For another assay, the target named is T2, HIF-2α (Homo sapiens, UniProt Q99814).
T2 construct: host or cells: 786-O cells stably transduced with Cignal Lenti HIF Luc Reporter (only the reporter was introduced, not HIF-2α)
Put plainly: HIF-2α luciferase reporter assay in HIF-Luc-786-O cells. In kind it is cell-based. Summed up: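 Luminescence (ONE-Glo) read after 20 h compound incubation, top concentration 50 uM, 1% DMSO, 20,000 HIF-Luc-786-O cells per well. Activity scaled between DMSO maximum and no-cell baseline; four-parameter dose-response fits yielded IC50.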
In general terms: In a reporter assay the amount or activity of a reporter protein is the signal.

T1 sequence (Q99814 240-350): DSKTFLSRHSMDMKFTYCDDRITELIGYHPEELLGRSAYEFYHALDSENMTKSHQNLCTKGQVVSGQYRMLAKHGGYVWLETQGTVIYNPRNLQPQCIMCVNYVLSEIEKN
T2 sequence (Q99814 whole entry): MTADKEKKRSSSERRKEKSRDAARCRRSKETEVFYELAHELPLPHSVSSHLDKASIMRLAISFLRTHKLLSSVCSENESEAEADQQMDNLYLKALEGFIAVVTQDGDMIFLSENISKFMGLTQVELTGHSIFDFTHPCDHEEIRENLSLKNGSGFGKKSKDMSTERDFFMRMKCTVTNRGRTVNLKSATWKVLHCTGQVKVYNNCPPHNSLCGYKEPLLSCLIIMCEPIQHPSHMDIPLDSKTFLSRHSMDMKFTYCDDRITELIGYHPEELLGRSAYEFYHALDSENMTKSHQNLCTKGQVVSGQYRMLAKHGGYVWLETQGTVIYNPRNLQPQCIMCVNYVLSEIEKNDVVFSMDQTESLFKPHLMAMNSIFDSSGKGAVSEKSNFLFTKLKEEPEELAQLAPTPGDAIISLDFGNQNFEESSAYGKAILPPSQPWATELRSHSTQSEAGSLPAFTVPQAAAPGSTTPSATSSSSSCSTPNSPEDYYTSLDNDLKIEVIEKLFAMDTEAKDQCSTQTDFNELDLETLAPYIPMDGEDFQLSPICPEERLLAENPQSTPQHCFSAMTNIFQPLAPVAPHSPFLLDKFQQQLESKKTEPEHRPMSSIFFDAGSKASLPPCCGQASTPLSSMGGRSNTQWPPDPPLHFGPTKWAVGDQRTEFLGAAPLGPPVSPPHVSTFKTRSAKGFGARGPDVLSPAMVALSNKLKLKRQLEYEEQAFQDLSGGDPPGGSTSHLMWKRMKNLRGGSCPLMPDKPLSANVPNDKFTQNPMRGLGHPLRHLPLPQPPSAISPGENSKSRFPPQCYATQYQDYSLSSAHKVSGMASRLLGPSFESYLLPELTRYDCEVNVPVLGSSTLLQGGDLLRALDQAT

Regarding `N#Cc1cc(F)cc2c1C(c1ccc(C#N)c3c1CC(F)(F)[C@H]3O)CCC2` (mixture of isomers) [Example 141, 8-[(1S)-7-cyano-2,2-difluoro-1-hydroxy-1,3-dihydroinden-4-yl]-3-fluoro-5,6,7,8-tetrahydronaphthalene-1-carbonitrile], the IC50 in assay [1] (Table 2) was below 100 nM; against HIF-2α (Table 2, 20 hours incubation) it was below 100 nM.
As for `CS(=O)(=O)c1ccc(N2CCCc3cc(F)cc(C#N)c32)c2c1[C@H](O)C(F)(F)C2` (racemic) [Example 31], the IC50 is 100 to 1000 nM in assay [1] (Table 1) and 100 to 1000 nM at HIF-2α (Table 1, 20 hours incubation).
`CS(=O)(=O)c1ccc(C2CCCc3cc(F)cc(C#N)c32)c2c1[C@H](O)[C@H](F)C2` (stereo in doubt) [Example 7, (8S)-3-fluoro-8-((1S,2R)-2-fluoro-1-hydroxy-7-(methylsulfonyl)-2,3-dihydro-1H-inden-4-yl)-5,6,7,8-tetrahydronaphthalene-1-carbonitrile]: the IC50 was below 100 nM in assay [1] (Table 1) and below 100 nM on HIF-2α (Table 1, 20 hours incubation).
Regarding `CS(=O)(=O)c1ccc(N2CCCc3cc(F)cc(F)c32)c2c1[C@H](O)C(F)(F)C2` (stereo in doubt) [Example 22, 4-(6,8-difluoro-1,2,3,4-tetrahydroquinolin-1-yl)-2,2-difluoro-7-methanesulfonyl-2,3-dihydro-1H-inden-1-ol], the IC50 in assay [1] (Table 1) is 100 to 1000 nM; against HIF-2α (Table 1, 20 hours incubation), above 1000 nM.
For `CS(=O)(=O)c1ccc([C@H]2CCCc3cc(F)cc(F)c32)c2c1[C@H](O)[C@H](F)C2` (stereo in doubt) [Example 99] the same measures were 100 to 1000 nM and 100 to 1000 nM.
`CS(=O)(=O)c1ccc(C2CCCc3cc(F)cc(F)c32)c(Cl)c1C#N` (stereo not drawn) [Example 1, 2-chloro-3-(6,8-difluoro-1,2,3,4-tetrahydronaphthalen-1-yl)-6-methanesulfonylbenzonitrile]: the IC50 was 100 to 1000 nM in assay [1] (Table 1) and above 1000 nM against HIF-2α (Table 1, 20 hours incubation).
For `O=S(=O)(c1ccc([C@H]2CCCc3cc(F)cc(F)c32)c2c1[C@H](O)[C@H](F)C2)C(F)(F)F` [Example 2a, (1S,2R)-4-[R-6,8-difluoro-1,2,3,4-tetrahydronaphth-1-yl]-2-fluoro-7-(trifluoromethylsulfonyl)-1-indanol] the same measures were below 100 nM and below 100 nM.
The matching figures for `O=S(=O)(c1ccc([C@@H]2CCCc3cc(F)cc(F)c32)c2c1[C@H](O)[C@H](F)C2)C(F)(F)F` [Example 2b, (1S,2R)-4-[S-6,8-difluoro-1,2,3,4-tetrahydronaphth-1-yl]-2-fluoro-7-(trifluoromethylsulfonyl)-1-indanol]: 100 to 1000 nM and 100 to 1000 nM.
With `CS(=O)(=O)c1ccc([C@@H]2CCCc3cc(F)cc(F)c32)c2c1[C@H](O)[C@H](F)C2` [Example 3, (1S,2R)-4-[(1S)-6,8-difluoro-1,2,3,4-tetrahydronaphthalen-1-yl]-2-fluoro-7-methanesulfonyl-2,3-dihydro-1H-inden-1-ol], the IC50 in assay [1] (Table 1) was above 1000 nM; against HIF-2α (Table 1, 20 hours incubation) it was above 1000 nM.
Take `CS(=O)(=O)c1ccc([C@H]2CCCc3cc(F)cc(F)c32)c2c1[C@H](O)[C@H](F)C2` [Example 4, (1S,2R)-4-[(1R)-6,8-difluoro-1,2,3,4-tetrahydronaphthalen-1-yl]-2-fluoro-7-methanesulfonyl-2,3-dihydro-1H-inden-1-ol]: the IC50 in assay [1] (Table 1) is below 100 nM; against HIF-2α (Table 1, 20 hours incubation) it was 100 to 1000 nM.
On to `N#Cc1cc(F)cc2c1[C@@H](c1ccc(S(=O)(=O)C(F)(F)F)c3c1C[C@@H](F)[C@H]3O)CCC2` [Example 5, (8R)-3-fluoro-8-((1S,2R)-2-fluoro-1-hydroxy-7-((trifluoromethyl)sulfonyl)-2,3-dihydro-1H-inden-4-yl)-5,6,7,8-tetrahydronaphthalene-1-carbonitrile], for which the IC50 was below 100 nM in assay [1] (Table 1) and below 100 nM against HIF-2α (Table 1, 20 hours incubation).
Consider `N#Cc1cc(F)cc2c1[C@H](c1ccc(S(=O)(=O)C(F)(F)F)c3c1C[C@@H](F)[C@H]3O)CCC2` [Example 6, (S)-3-fluoro-8-((1S,2R)-2-fluoro-1-hydroxy-7-((trifluoromethyl)sulfonyl)-2,3-dihydro-1H-inden-4-yl)-5,6,7,8-tetrahydronaphthalene-1-carbonitrile], for which the half-maximal inhibitory concentration (IC50) in assay [1] (Table 1) is above 1000 nM; against HIF-2α (Table 1, 20 hours incubation) it was above 1000 nM.
Regarding `O=S(=O)(c1ccc([C@H]2CCOc3cc(F)cc(F)c32)c2c1[C@H](O)[C@H](F)C2)C(F)(F)F` [Example 8, (1S,2R)-4-[(4R)-5,7-difluoro-3,4-dihydro-2H-1-benzopyran-4-yl]-2-fluoro-7-trifluoromethanesulfonyl-2,3-dihydro-1H-inden-1-ol], the IC50 in assay [1] (Table 1) was in the range of 100 to 1000 nM; against HIF-2α (Table 1, 20 hours incubation), 100 to 1000 nM.
For the compound `CS(=O)(=O)c1ccc(C2CCCc3cc(F)ccc32)c2c1[C@H](O)C(F)(F)C2` (stereo partly drawn) [Example 9], the IC50 fell in the range of 100 to 1000 nM in assay [1] (Table 1) and 100 to 1000 nM at HIF-2α (Table 1, 20 hours incubation).
In the case of `N#Cc1cc(F)cc2c1N(c1ccc(S(=O)(=O)C(F)(F)F)c(C#N)c1Cl)CCC2` [Example 10, 1-(2-chloro-3-cyano-4-trifluoromethanesulfonylphenyl)-6-fluoro-1,2,3,4-tetrahydroquinoline-8-carbonitrile], the IC50 in assay [1] (Table 1) was below 100 nM; on HIF-2α (Table 1, 20 hours incubation) it was below 100 nM.
As to `CS(=O)(=O)c1ccc(N2CCCc3cc(F)cc(C#N)c32)c(Cl)c1C#N` [Example 11, 1-(2-Chloro-3-cyano-4-methanesulfonylphenyl)-6-fluoro-1,2,3,4-tetrahydroquinoline-8-carbonitrile], the IC50 in assay [1] (Table 1) was 100 to 1000 nM; at HIF-2α (Table 1, 20 hours incubation), 100 to 1000 nM.
As to `N#Cc1c(S(=O)(=O)C(F)(F)F)ccc(N2CCCc3cc(F)cc(Cl)c32)c1Cl` [Example 12, 2-chloro-3-(8-chloro-6-fluoro-1,2,3,4-tetrahydroquinolin-1-yl)-6-trifluoromethanesulfonylbenzonitrile], the IC50 in assay [1] (Table 1) is 100 to 1000 nM; at HIF-2α (Table 1, 20 hours incubation), above 1000 nM.
The matching figures for `N#Cc1c(S(=O)(=O)C(F)(F)F)ccc(N2CCCc3cc(F)cc(F)c32)c1Cl` [Example 13, 2-chloro-3-(6,8-difluoro-1,2,3,4-tetrahydroquinolin-1-yl)-6-trifluoromethanesulfonylbenzonitrile]: 100 to 1000 nM and above 1000 nM.
On to `N#Cc1cc(N2CCCc3cc(F)cc(C#N)c32)cnc1C(F)(F)F` [Example 14, 1-[5-cyano-6-(trifluoromethyl)pyridin-3-yl]-6-fluoro-1,2,3,4-tetrahydroquinoline-8-carbonitrile], for which the half-inhibitory concentration (IC50) in assay [1] (Table 1) lay in the range of 100 to 1000 nM; on HIF-2α (Table 1, 20 hours incubation), 100 to 1000 nM.
`N#Cc1cc(F)cc2c1N(c1ccc(C(F)(F)F)c(F)c1Cl)CCC2` [Example 15, 1-[2-chloro-3-fluoro-4-(trifluoromethyl)phenyl]-6-fluoro-1,2,3,4-tetrahydroquinoline-8-carbonitrile]: the IC50 lay within 100 to 1000 nM in assay [1] (Table 1) and 100 to 1000 nM on HIF-2α (Table 1, 20 hours incubation).
Regarding `N#Cc1cc(F)cc2c1N(c1ccc(S(=O)(=O)C(F)(F)F)c3cnccc13)CCC2` [Example 16, 6-fluoro-1-[8-(trifluoromethylsulfonyl)-5-isoquinolyl]-1,2,3,4-tetrahydroquinoline-8-carbonitrile], the IC50 lay in the range of 100 to 1000 nM in assay [1] (Table 1) and 100 to 1000 nM on HIF-2α (Table 1, 20 hours incubation).
For the compound `CC[C@H]1CCN(c2ccc(S(=O)(=O)C(F)(F)F)c3c2C[C@@H](F)[C@H]3O)c2c(F)cc(F)cc21` [Example 17, (1S,2R)-4-[(S)-4-ethyl-6,8-difluoro-1,2,3,4-tetrahydroquinol-1-yl]-2-fluoro-7-(trifluoromethylsulfonyl)-1-indanol], the IC50 lay in the range of 100 to 1000 nM in assay [1] (Table 1) and 100 to 1000 nM on HIF-2α (Table 1, 20 hours incubation).
For the compound `COc1cc(F)cc2c1N(c1ccc(S(=O)(=O)C(F)(F)F)c(C#N)c1Cl)CCC2` [Example 18, 2-chloro-3-(6-fluoro-8-methoxy-3,4-dihydroquinolin-1(211)-yl)-6-((trifluoromethyl)sulfonyl)benzonitrile], the IC50 in assay [1] (Table 1) is above 1000 nM; on HIF-2α (Table 1, 20 hours incubation) it was above 1000 nM.
Compound `CS(=O)(=O)c1ccc([C@H]2CC[C@H](F)c3cc(F)cc(C#N)c32)c2c1[C@H](O)[C@@](F)(C#N)C2` [Example 247, (5S,8R)-8-[(1S,2S)-2-cyano-2-fluoro-1-hydroxy-7-methylsulfonyl-1,3-dihydroinden-4-yl]-3,5-difluoro-5,6,7,8-tetrahydronaphthalene-1-carbonitrile] displayed an IC50 against HIF-2α (Table 3, 20 hours incubation) below 100 nM.
`CS(=O)(=O)c1ccc([C@H]2CC[C@H](F)c3cc(F)cc(C#N)c32)c2c1[C@H](O)[C@](F)(C#N)C2` [Example 248, (5S,8R)-8-[(1S,2R)-2-cyano-2-fluoro-1-hydroxy-7-methylsulfonyl-1,3-dihydroinden-4-yl]-3,5-difluoro-5,6,7,8-tetrahydronaphthalene-1-carbonitrile]: at HIF-2α (Table 3, 20 hours incubation), the half-maximal inhibitory concentration (IC50) is 100 to 1000 nM.
